Reference: US10239887B2, “Positive allosteric modulators of the muscarinic acetylcholine receptor M4” (Vanderbilt University, priority 2016, dated 2019)
Counter-ions that a name gives are not always drawn. Like-named read-outs stand apart in the source and are kept apart here.

Molecular target: T1, human mAChR M4 (Homo sapiens, UniProt P08173)
T1 sequence (P08173 1-479): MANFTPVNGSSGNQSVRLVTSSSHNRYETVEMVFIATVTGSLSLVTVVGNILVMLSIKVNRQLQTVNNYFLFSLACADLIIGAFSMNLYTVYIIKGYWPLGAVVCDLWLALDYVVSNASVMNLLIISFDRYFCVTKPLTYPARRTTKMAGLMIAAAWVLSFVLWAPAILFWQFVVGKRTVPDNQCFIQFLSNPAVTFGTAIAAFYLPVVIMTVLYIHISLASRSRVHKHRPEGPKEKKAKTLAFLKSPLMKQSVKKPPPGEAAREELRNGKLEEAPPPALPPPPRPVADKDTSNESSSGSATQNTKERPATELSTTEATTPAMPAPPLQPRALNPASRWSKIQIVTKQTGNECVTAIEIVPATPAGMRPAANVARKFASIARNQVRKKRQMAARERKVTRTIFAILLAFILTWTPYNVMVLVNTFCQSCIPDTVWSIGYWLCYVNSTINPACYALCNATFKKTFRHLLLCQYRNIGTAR
Experiment: mAChR M4 cell-based functional assay (calcium flux), human M4

[1] = Human M4 EC50 (nM), Table 10, calcium flux, PAM activity with EC20 acetylcholine
[2] = Table 10, % ACh maximum at 30 μM
[3] = Human M4 EC50 (nM), Table 11, calcium flux, PAM activity with EC20 acetylcholine
[4] = Table 11, % ACh maximum at 30 μM
[5] = Human M4, % ACh maximum at 30 μM
[6] = Human M4 EC50, CHO-K1 hM4-Gqi5 cells, calcium flux, increase in EC20 acetylcholine response

| SMILES | EC50 [1] | Emax [2] | other results |
| --- | --- | --- | --- |
| Cc1nnc2sc3c(NCc4ccc(-c5ccc[nH]5)cc4)ncnc3c2c1C [Compound 191, 3,4-dimethyl-N-[[4-(1H-pyrrol-2-yl)phenyl]methyl]pyrimido[4′,5′:4,5] thieno[2,3-c]pyridazin-8-amine] | 837 nM | 56.9% | – |
| Cc1nnc2sc3c(NCc4ccc(C(=O)NC5CC(F)C5)c(Cl)c4)ncnc3c2c1C (stereo not shown) [Compound 321, 2-chloro-4-[[(3,4-dimethylpyrimido [4′,5′:4,5]thieno[2,3-c]pyridazin-8-yl)amino]methyl]-N-(3-fluorocyclobutyl) benzamide] | – | – | EC50 [3]: 102 nM; Emax [4]: 80.6% |
| Cc1nnc2sc3c(NCc4ccc(C(C)(C)O)cc4F)ncnc3c2c1C [Compound 107, 2-[4-[[(3,4-dimethylpyrimido [4′,5′:4,5]thieno[2,3-c]pyridazin-8-yl)amino]methyl]-3-fluoro-phenyl]propan-2-ol] | 207 nM | 78.8% | – |
| Cc1nnc2oc3c(NCc4ccc(C(C)(O)C(F)(F)F)cc4)ncnc3c2c1C (stereo not shown) [Compound 312, 2-[4-[[(3,4-dimethylpyrimido [4′,5′:4,5]furo[2,3-c]pyridazin-8-yl)amino]methyl]phenyl]-1,1,1-trifluoro-propan-2-ol] | 909 nM | 70.2% | – |
| COc1nnc2sc3c(N4CCCC4)ncnc3c2c1C [Compound 281, 3-methoxy-4-methyl-8-pyrrolidin-1-yl-pyrimido [4′,5′:4,5]thieno[2,3-c] pyridazine] | 47.7 nM | 117% | – |
| Cc1c(Cl)cnc2sc3c(NCc4ccc(CN5CCOCC5)cc4)ncnc3c12 [Compound 232, 8-chloro-9-methyl-N-[[4-(morpholinomethyl)phenyl]methyl]pyrido [3′,2′:4,5]thieno[3,2-d] pyrimidin-4-amine] | 9780 nM | 69.8% | – |
| Cc1nc2oc3c(NCc4ccc(C(C)(C)O)cc4)ncnc3c2c(C)c1Cl [Compound 251, 2-[4-[[(8-chloro-7,9-dimethyl-pyrido [3′,2′:4,5]furo[3,2-d]pyrimidin-4-yl)amino]methyl]phenyl]propan-2-ol] | 1160 nM | 61.8% | – |
| Cc1nnc2sc3c(N4CCC(Oc5ccnc(Cl)c5)CC4)ncnc3c2c1C [Compound 346, 8-[4-[(2-chloro-4-pyridyl)oxy]-1-piperidyl]-3,4-dimethyl-pyrimido [4′,5′:4,5]thieno[2,3-c] pyridazine] | – | – | EC50 [3]: 749 nM; Emax [4]: 56.8% |
| Cc1c(Cl)nnc2sc3c(NCc4ccc(C(C)(C)O)cc4)ncnc3c12 [Compound 213] | – | 97.3% | – |
| Cc1nnc2sc3c(NCc4ccc(F)c(C(=O)NC5CC5)c4)ncnc3c2c1C [Compound 176, N-cyclopropyl-5-[[(3,4-dimethylpyrimido [4′,5′:4,5]thieno[2,3-c]pyridazin-8-yl)amino]methyl]-2-fluoro-benzamide] | 511 nM | 105% | – |
| Cc1nnc2sc3c(NCc4ccc(N5CCNCC5)cc4)ncnc3c2c1C [Compound 118, 3,4-dimethyl-N-[(4-piperazin-1-ylphenyl)methyl]pyrimido [4′,5′:4,5]thieno[2,3-c] pyridazin-8-amine] | 69 nM | 101% | – |
| COCCNC(=O)c1cc(CNc2ncnc3c2sc2nnc(C)c(C)c23)ccc1F [Compound 186, 5-[[(3,4-dimethylpyrimido [4′,5′:4,5]thieno[2,3-c]pyridazin-8-yl)amino]methyl]-2-fluoro-N-(2-methoxyethyl)benzamide] | 687 nM | 86.8% | – |
| Cc1nnc2sc3c(N4CCC(C(C)(C)O)C4)ncnc3c2c1C (stereo not shown) [Compound 171, 2-[1-(3,4-dimethylpyrimido [4′,5′:4,5]thieno[2,3-c]pyridazin-8-yl)pyrrolidin-3-yl]propan-2-ol] | 172 nM | 30.9% | – |
| [2H]C([2H])([2H])C(O)(c1ccc(CNc2ncnc3c2sc2nnc(C)c(C)c23)cc1)C([2H])([2H])[2H] [Compound 352, 1,1,1,3,3,3-hexadeuterio-2-[4-[[(3,4-dimethylpyrimido [4′,5′:4,5]thieno[2,3-c]pyridazin-8-yl)amino]methyl]phenyl]propan-2-ol] | – | – | Emax [4]: 103% |
| Cc1c(Cl)cnc2sc3c(NCc4ccc5c(c4)CC(C)(C)O5)ncnc3c12 [Compound 233, 8-chloro-N-[(2,2-dimethyl-3H-benzofuran-5-yl)methyl]-9-methyl-pyrido [3′,2′:4,5]thieno[3,2-d] pyrimidin-4-amine] | 5510 nM | 40.6% | – |
| Cc1nnc2sc3c(NCc4ccc(-c5cccn5C)cc4)ncnc3c2c1C [Compound 341, 3,4-dimethyl-N-[[4-(1-methylpyrrol-2-yl)phenyl]methyl]pyrimido[4′,5′:4,5] thieno[2,3-c]pyridazin-8-amine] | – | – | EC50 [3]: 1290 nM; Emax [4]: 81.2% |
| Cc1nnc2sc3c(NCc4ccc(C(=O)NC5CC(F)C5)cc4)ncnc3c2c1C (stereo not shown) [Compound 151, 4-[[(3,4-dimethylpyrimido [4′,5′:4,5]thieno[2,3-c]pyridazin-8-yl)amino]methyl]-N-(3-fluorocyclobutyl) benzamide] | 27.7 nM | 87.4% | – |
| Cc1nnc2oc3c(NC4CC5(COC5)C4)ncnc3c2c1C [Compound 71, 3,4-dimethyl-N-(2-oxaspiro[3.3]heptan-6-yl)pyrimido[4′,5′:4,5] furo[2,3-c]pyridazin-8-amine] | – | – | Emax [5]: 37.2%; EC50 [6]: > 10000 nM |
| Cc1cc(C)c2c(n1)oc1c(NC3CC3c3ccc(F)c(F)c3)ncnc12 (stereo not shown) [Compound 294, N-[2-(3,4-difluorophenyl)cyclopropyl]-7,9-dimethyl-pyrido[3′,2′:4,5]furo [3,2-d]pyrimidin-4-amine hydrochloride] | 3380 nM | 56.3% | – |
| Cc1c(Cl)cnc2sc3c(NCc4ccc(C(=O)N(C)C)cc4)ncnc3c12 [Compound 229, 4-[[(8-chloro-9-methyl-pyrido [3′,2′:4,5]thieno[3,2-d]pyrimidin-4-yl)amino]methyl]-N,N-dimethyl-benzamide] | 1920 nM | 54.5% | – |
| Cc1c(Cl)cnc2sc3c(N4CC5CC5C4)ncnc3c12 (stereo not shown) [Compound 219, 4-(3-azabicyclo[3.1.0]hexan-3-yl)-8-chloro-9-methyl-pyrido [3′,2′:4,5]thieno[3,2-d] pyrimidine] | 555 nM | 47.8% | – |
| CCCCCC(=O)N1CC2(CC(Nc3ncnc4c3sc3nnc(C)c(C)c34)C2)C1 [Compound 170, 1-[6-[(3,4-dimethylpyrimido [4′,5′:4,5]thieno[2,3-c]pyridazin-8-yl)amino]-2-azaspiro[3.3]heptan-2-yl]hexan-1-one; 2,2,2-trifluoroacetate acid] | 1260 nM | 41% | – |
| COc1ccc(CNc2ncnc3c2sc2nc(C)c(Cl)c(C)c23)cc1OC [Compound 267, 8-chloro-N-[(3,4-dimethoxyphenyl)methyl]-7,9-dimethyl-pyrido[3′,2′:4,5]thieno [3,2-d]pyrimidin-4-amine hydrochloride] | – | 33.6% | EC50 (Human M4 EC50 (nM), Table 10, unit μM (bounds)): > 10000 nM |
| Cc1nnc2sc3c(N4CC(Oc5cnccn5)C4)ncnc3c2c1C [Compound 350, 3,4-dimethyl-8-(3-pyrazin-2-yloxyazetidin-1-yl) pyrimido[4′,5′:4,5]thieno [2,3-c]pyridazine dihydrochloride] | – | – | EC50 [3]: 404 nM; Emax [4]: 78.1% |
| Cc1cc(C)c2c(n1)oc1c(NC3CN(c4cc(Cl)ncc4Cl)C3)ncnc12 [Compound 60, N-[1-(2,5-dichloro-4-pyridyl)azetidin-3-yl]-7,9-dimethyl-pyrido[3′,2′:4,5]furo[3,2-d]pyrimidin-4-amine dihydrochloride] | – | – | Emax: 49.3%; EC50 [6]: 1490 nM |
| CCNc1ncnc2c1oc1nc(C)c(Cl)c(C)c12 [Compound 47, 8-chloro-N-ethyl-7,9-dimethyl-pyrido[3′,2′:4,5]furo[3,2-d]pyrimidin-4-amine hydrochloride] | – | – | Emax [5]: 40.6%; EC50 [6]: 1250 nM |
| Cc1nnc2sc3c(NCc4ccc(-c5cccnc5F)cc4)ncnc3c2c1C [Compound 79, N-(4-(2-fluoropyridin-3-yl)benzyl)-3,4-dimethylpyrimido [4′,5′:4,5]thieno[2,3-c] pyridazin-8-amine] | 773 nM | 95.2% | – |
| Cc1c(Cl)cnc2sc3c(NCc4ccc5c(c4)COC5)ncnc3c12 [Compound 234, 8-chloro-N-(1,3-dihydroisobenzofuran-5-ylmethyl)-9-methyl-pyrido [3′,2′:4,5]thieno[3,2-d] pyrimidin-4-amine] | 5580 nM | 56.1% | – |
| Cc1cc(O[C@H]2C[C@@H](C)N(c3ncnc4c3sc3nnc(C)c(C)c34)C2)ccn1 [Compound 365, 3,4-dimethyl-8-[(2R,4S)-2-methyl-4-[(2-methyl-4-pyridyl)oxy]pyrrolidin-1-yl]pyrimido [4′,5′:4,5]thieno[2,3-c] pyridazine dihydrochloride] | – | – | EC50 [3]: 551 nM; Emax [4]: 65.2% |
| Cc1nnc2sc3c(NCc4ccc(C(=O)N5CC(F)(F)C5)cc4)ncnc3c2c1C [Compound 156, (3,3-difluoroazetidin-1-yl)-[4-[[(3,4-dimethlpyrimido [4′,5′:4,5]thieno[2,3-c]pyridazin-8-yl)amino]methyl]phenyl]methanone] | 590 nM | 84.9% | – |
